{
  "source": "paper PMC8286840",
  "about": "“Identifying SARS-CoV-2 antiviral compounds by screening for small molecule inhibitors of Nsp3 papain-like protease” (Biochemical Journal, 2021)",
  "key": {"[1]": {"target": "T1, SARS-CoV-2 PLpro (nsp3 1564–1878) (Severe acute respiratory syndrome coronavirus 2, UniProt P0DTD1)", "experiment": "biochemical", "set-up": "FRET-quenched peptide (Pro3) cleavage by PLpro, 10 min pre-incubation, slope over 20 min, normalised to no-compound control", "settings": "read-out: % of control remaining"}, "[2]": {"target": "T1, SARS-CoV-2 PLpro (nsp3 1564–1878)", "experiment": "biochemical", "set-up": "FRET-quenched peptide (Pro3) cleavage by PLpro, 10 min pre-incubation, slope over 20 min, normalised to no-compound control", "settings": "read-out: % of control remaining", "remark": "listed apart in the source"}},
  "note": "Where a name gives a salt, the structure may show the parent alone. Read-outs that look alike come from different tables or passages of the source.",
  "data": [
    {"molecule": "O=[N+]([O-])c1ccc(S(=O)(=O)NCc2ccccc2)c([N+](=O)[O-])c1", "note": "[N-Benzyl-2,4-dinitrobenzenesulfonamide]", "values": [
      {"measurement": "remaining activity at 3.75 µM", "setting": "[1]; Well no.=6125, high concentration screen", "value": 102, "unit": "%"},
      {"measurement": "remaining activity at 1.25 µM", "setting": "[2]; Well no.=6125, low concentration screen", "value": 98.4, "unit": "%"}
    ]},
    {"molecule": "CC(=O)NBr", "note": "[N-Bromoacetamide]", "values": [
      {"measurement": "remaining activity at 3.75 µM", "setting": "[1]; Well no.=171, high concentration screen", "value": 98.1, "unit": "%"},
      {"measurement": "remaining activity at 1.25 µM", "setting": "[2]; Well no.=171, low concentration screen", "value": 101, "unit": "%"}
    ]},
    {"molecule": "Clc1ccc2c(c1)N=C(N1CCNCC1)c1ccccc1N2", "note": "[N-Desmethylclozapine]", "values": [
      {"measurement": "remaining activity at 3.75 µM", "setting": "[1]; Well no.=7229, high concentration screen", "value": 98.9, "unit": "%"},
      {"measurement": "remaining activity at 1.25 µM", "setting": "[2]; Well no.=7229, low concentration screen", "value": 100, "unit": "%"}
    ]},
    {"molecule": "CCN1C(=O)C=CC1=O", "note": "[N-Ethylmaleimide]", "values": [
      {"measurement": "remaining activity at 3.75 µM", "setting": "[1]; Well no.=461, high concentration screen", "value": 101, "unit": "%"},
      {"measurement": "remaining activity at 3.75 µM", "setting": "[1]; Well no.=4101, high concentration screen", "value": 95.8, "unit": "%"},
      {"measurement": "remaining activity at 1.25 µM", "setting": "[2]; Well no.=461, low concentration screen", "value": 102, "unit": "%"},
      {"measurement": "remaining activity at 1.25 µM", "setting": "[2]; Well no.=4101, low concentration screen", "value": 88.4, "unit": "%"}
    ]},
    {"molecule": "COc1cc2c(c(OC)c1OC)-c1ccc(OC)c(=O)cc1[C@@H](NC=O)CC2", "note": "[N-Formyl-Deacetylcolchicine]", "values": [
      {"measurement": "remaining activity at 3.75 µM", "setting": "[1]", "value": 103, "unit": "%"},
      {"measurement": "remaining activity at 1.25 µM", "setting": "[2]", "value": 102, "unit": "%"}
    ]},
    {"molecule": "CC(C)CC(=O)NCC(=O)O", "note": "[N-Isovaleroylglycine]", "values": [
      {"measurement": "remaining activity at 3.75 µM", "setting": "[1]; Well no.=6643, high concentration screen", "value": 122, "unit": "%"},
      {"measurement": "remaining activity at 1.25 µM", "setting": "[2]; Well no.=6643, low concentration screen", "value": 110, "unit": "%"}
    ]},
    {"molecule": "CCCCC/C=C\\C/C=C\\CCCCCCCC(=O)NCC(=O)O", "note": "[N-Linoleoylglycine]", "values": [
      {"measurement": "remaining activity at 3.75 µM", "setting": "[1]; Well no.=4595, high concentration screen", "value": 94.3, "unit": "%"},
      {"measurement": "remaining activity at 1.25 µM", "setting": "[2]; Well no.=4595, low concentration screen", "value": 95, "unit": "%"}
    ]},
    {"molecule": "CN1C[C@H](O)[C@@H](O)[C@H](O)[C@H]1CO", "note": "[N-Methyl-1-deoxynojirimycin]", "values": [
      {"measurement": "remaining activity at 3.75 µM", "setting": "[1]; Well no.=1016, high concentration screen", "value": 98.3, "unit": "%"},
      {"measurement": "remaining activity at 1.25 µM", "setting": "[2]; Well no.=1016, low concentration screen", "value": 99.2, "unit": "%"}
    ]},
    {"molecule": "CN[C@H](CC(=O)O)C(=O)O", "note": "[N-Methyl-D-aspartic acid]", "values": [
      {"measurement": "remaining activity at 3.75 µM", "setting": "[1]; Well no.=1020, high concentration screen", "value": 105, "unit": "%"},
      {"measurement": "remaining activity at 1.25 µM", "setting": "[2]; Well no.=1020, low concentration screen", "value": 103, "unit": "%"}
    ]},
    {"molecule": "CNC(=O)c1cc2c(cn1)[nH]c1ccccc12", "note": "[N-Methyl-beta-carboline-3-carboxamide]", "values": [
      {"measurement": "remaining activity at 3.75 µM", "setting": "[1]; Well no.=655, high concentration screen", "value": 94.2, "unit": "%"},
      {"measurement": "remaining activity at 1.25 µM", "setting": "[2]; Well no.=655, low concentration screen", "value": 96.4, "unit": "%"}
    ]},
    {"molecule": "CNCCc1ccc(O)c(O)c1", "note": "[N-Methyldopamine hydrochloride]", "values": [
      {"measurement": "remaining activity at 3.75 µM", "setting": "[1]; Well no.=693, high concentration screen", "value": 91.2, "unit": "%"},
      {"measurement": "remaining activity at 1.25 µM", "setting": "[2]; Well no.=693, low concentration screen", "value": 90.9, "unit": "%"}
    ]},
    {"molecule": "CN1CC(=O)NC1=O", "note": "[N-Methylhydantoin]", "values": [
      {"measurement": "remaining activity at 3.75 µM", "setting": "[1]; Well no.=6395, high concentration screen", "value": 98.5, "unit": "%"},
      {"measurement": "remaining activity at 1.25 µM", "setting": "[2]; Well no.=6395, low concentration screen", "value": 95.6, "unit": "%"}
    ]},
    {"molecule": "CN(C)CC(=O)O", "note": "[N-Methylsarcosine]", "values": [
      {"measurement": "remaining activity at 3.75 µM", "setting": "[1]; Well no.=6873, high concentration screen", "value": 102, "unit": "%"},
      {"measurement": "remaining activity at 1.25 µM", "setting": "[2]; Well no.=6873, low concentration screen", "value": 104, "unit": "%"}
    ]},
    {"molecule": "CCCCCCCC/C=C\\CCCCCCCC(=O)NCCO", "note": "[N-Oleoylethanolamine]", "values": [
      {"measurement": "remaining activity at 3.75 µM", "setting": "[1]; Well no.=1086, high concentration screen", "value": 94.6, "unit": "%"},
      {"measurement": "remaining activity at 1.25 µM", "setting": "[2]; Well no.=1086, low concentration screen", "value": 96.9, "unit": "%"}
    ]},
    {"molecule": "CCCCCCCC/C=C\\CCCCCCCC(=O)NCC(=O)O", "note": "[N-Oleoylglycine]", "values": [
      {"measurement": "remaining activity at 3.75 µM", "setting": "[1]; Well no.=5803, high concentration screen", "value": 106, "unit": "%"},
      {"measurement": "remaining activity at 1.25 µM", "setting": "[2]; Well no.=5803, low concentration screen", "value": 104, "unit": "%"}
    ]},
    {"molecule": "O=C(O)CNC(=O)C(=O)O", "note": "[N-Oxalylglycine]", "values": [
      {"measurement": "remaining activity at 3.75 µM", "setting": "[1]; Well no.=5387, high concentration screen", "value": 92.4, "unit": "%"},
      {"measurement": "remaining activity at 1.25 µM", "setting": "[2]; Well no.=5387, low concentration screen", "value": 97.9, "unit": "%"}
    ]},
    {"molecule": "O=C(O)c1ccccc1Nc1ccccc1", "note": "[N-Phenylanthranilic acid]", "values": [
      {"measurement": "remaining activity at 3.75 µM", "setting": "[1]; Well no.=51, high concentration screen", "value": 95.6, "unit": "%"},
      {"measurement": "remaining activity at 1.25 µM", "setting": "[2]; Well no.=51, low concentration screen", "value": 101, "unit": "%"}
    ]},
    {"molecule": "CCCOC(=O)c1cc(O)c(O)c(O)c1", "note": "[N-Propyl gallate]", "values": [
      {"measurement": "remaining activity at 3.75 µM", "setting": "[1]; Well no.=3987, high concentration screen", "value": 102, "unit": "%"},
      {"measurement": "remaining activity at 1.25 µM", "setting": "[2]; Well no.=3987, low concentration screen", "value": 104, "unit": "%"}
    ]},
    {"molecule": "O=C(O)CCC(=O)N1CCC[C@H]1C(=O)O", "note": "[N-Succinyl-L-proline]", "values": [
      {"measurement": "remaining activity at 3.75 µM", "setting": "[1]; Well no.=1506, high concentration screen", "value": 91.2, "unit": "%"},
      {"measurement": "remaining activity at 1.25 µM", "setting": "[2]; Well no.=1506, low concentration screen", "value": 89.9, "unit": "%"}
    ]},
    {"molecule": "CCCCCCCCC(=O)NCc1ccc(O)c(OC)c1", "note": "[N-Vanillylnonanamide]", "values": [
      {"measurement": "remaining activity at 3.75 µM", "setting": "[1]", "value": 96.6, "unit": "%"},
      {"measurement": "remaining activity at 1.25 µM", "setting": "[2]", "value": 96.7, "unit": "%"}
    ]},
    {"molecule": "CC(ONC(=O)c1cc(C(F)(F)F)cc(C(F)(F)F)c1)C(=O)Nc1ccc(Cl)cc1", "note": "(stereo not drawn) [N-[2-(4-chloroanilino)-1-methyl-2-oxoethoxy]-3,5-bis(trifluoromethyl)benzamide]", "values": [
      {"measurement": "remaining activity at 3.75 µM", "setting": "[1]; Well no.=5698, high concentration screen", "value": 103, "unit": "%"},
      {"measurement": "remaining activity at 1.25 µM", "setting": "[2]; Well no.=5698, low concentration screen", "value": 101, "unit": "%"}
    ]},
    {"molecule": "Cc1ccc(F)cc1C(=O)Nc1ccc(C(=O)N2Cc3cccn3Cc3ccccc32)c(Cl)c1", "note": "[N-[3-chloro-4-(5H-pyrrolo[2,1-c][1,4]benzodiazepin-10(11H)-ylcarbonyl)phenyl]-5-fluoro-2-methylbenzamide]", "values": [
      {"measurement": "remaining activity at 3.75 µM", "setting": "[1]; Well no.=5601, high concentration screen", "value": 107, "unit": "%"},
      {"measurement": "remaining activity at 1.25 µM", "setting": "[2]; Well no.=5601, low concentration screen", "value": 103, "unit": "%"}
    ]},
    {"molecule": "CN(C)[C@@H]1CCc2[nH]c3ccc(NC(=O)c4ccc(F)cc4)cc3c2C1", "note": "[N-[(3R)-3-(dimethylamino)-2,3,4,9-tetrahydro-1H-carbazol-6-yl]-4-fluorobenzamide hydrochloride]", "values": [
      {"measurement": "remaining activity at 3.75 µM", "setting": "[1]; Well no.=6008, high concentration screen", "value": 95.9, "unit": "%"},
      {"measurement": "remaining activity at 1.25 µM", "setting": "[2]; Well no.=6008, low concentration screen", "value": 97.7, "unit": "%"}
    ]}
  ]
}
